Results reported in paper PMC3583015 (Drug metabolism reviews, 2013).
Where a chain is given by its changes, count along the chain named.

What was measured:
PXR LBD = details: ref Xue et al., 2007; cited from earlier work
T248E/K277Q form of PXR = details: ref Wang et al., 2007; cited from earlier work
PXR [1] = molecular target: T1, PXR (Homo sapiens, UniProt O75469); details: sustained for at least 48–72 hours; ref Fuchs et al., 2012; cited from earlier work
T1 sequence (O75469 1-434): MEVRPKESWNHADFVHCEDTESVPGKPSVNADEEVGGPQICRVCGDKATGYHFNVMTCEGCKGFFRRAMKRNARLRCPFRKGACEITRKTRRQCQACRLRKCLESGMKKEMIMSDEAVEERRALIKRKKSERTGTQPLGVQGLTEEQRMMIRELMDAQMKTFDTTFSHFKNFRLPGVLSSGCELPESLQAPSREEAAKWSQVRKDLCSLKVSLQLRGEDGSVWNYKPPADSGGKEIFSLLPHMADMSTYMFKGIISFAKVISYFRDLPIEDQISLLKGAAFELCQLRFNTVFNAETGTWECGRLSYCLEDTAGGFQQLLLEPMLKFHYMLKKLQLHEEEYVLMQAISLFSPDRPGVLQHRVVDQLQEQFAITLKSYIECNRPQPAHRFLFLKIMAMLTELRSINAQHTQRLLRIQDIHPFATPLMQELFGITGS

[2] = tested on: constitutively active pocket-filling mutants of PXR; assay: antagonism of constitutively active pocket-filling mutants of PXR; type: cell-based; details: double and triple mutant forms
Q272H PXR = molecular target: T2, Q272H PXR (Homo sapiens, UniProt O75469, Q272H); assay: yeast two-hybrid screen of PXR mutants; type: cell-based; details: Q272H mutation at the surface AF-2 site
T2 sequence (O75469 1-434 Q272H): T1 sequence (O75469 1-434) with Q272H

PXR [3] = details: ref Poulton et al., 2012; cited from earlier work

In the case of `O=S(=O)(c1ccccc1)N(CC(F)(F)F)c1ccc(C(O)(C(F)(F)F)C(F)(F)F)cc1` [T1317, T0901317], the Kd (PXR LBD) is listed as 11 nM.

In the case of `CC(=O)N1CCN(c2ccc(OCC3COC(Cn4ccnc4)(c4ccc(Cl)cc4Cl)O3)cc2)CC1` (stereo not drawn) [ketoconazole], the “antagonism of double-mutant T248E/K277Q PXR” value (T248E/K277Q form of PXR) is given as “not susceptible to antagonism”, the “concentration needed to antagonize PXR activation in vivo” value (PXR [1]) is given as greater than 10 µM and the “antagonism of constitutively active pocket-filling PXR mutants” value [2] is given as “still susceptible to antagonism”. For the same molecule, the “sensitivity of Q272H PXR to the antagonist” value (Q272H PXR) was “insensitive”.

For `C[S+]([O-])CCCCN=C=S` (stereo not drawn) [sulphoraphane, sulforaphane], the “effect in a humanized PXR mouse model” value (PXR [3]) is given as “absence of effect”.
